We go through 20 compounds from patent US9309213B2, “C-3 substituted bicyclooctane based HIV protease inhibitors” (Purdue Research Foundation, priority 2011, dated 2016).

Several values for one entry are separate records, joined by “and”; a condition that tells them apart may be missing. Equal values may be shown once. Read-outs that look alike come from different tables or passages of the source.

One experiment has as its target T1, HIV-1 protease (Human immunodeficiency virus type 1 group M subtype B, UniProt P04585).
T1 construct: The HIV aspartic protease plays a central role in the life cycle of the virus; It cleaves the virally encoded polyprotein
Description: HIV-1 protease enzyme inhibitory assay (protocol of Toth and Marshall). The format is biochemical. The source says:
Inhibitors were designed to make additional interactions in the S2-subsite of the protease, especially with the Gly48 backbone atoms in the flap region of the enzyme. All inhibitors in Table 1 were first evaluated in the enzyme inhibitory assay developed by Toth and Marshall (Toth and Marshall, Int. J. Pept. Protein Res. 1990, 36, 544-550). […] The 3-(S)-hydroxy Cp-THF ligand was also investigated in combination with other sulfonamide substituents.
All inhibitors were first tested for their enzyme inhibitory potency using the assay protocol developed by Toth and Marshall.

The subject of the next experiment is HIV-1LAI. Nature of the experiment: In vitro antiviral assay, MT-2 cells exposed to HIV-1LAI, MTT assay. The format is cell-based. To be noted: for loss of antiviral activity (higher IC50) compared to 22: relative to inhibitor 22.
Experiment [1] deals with HIV-1ERS104pre (wild type). Description: Antiviral assay in PHA-PBMs, inhibition of p24 Gag protein production, wild-type isolate. As to conditions: Human immunodeficiency virus 1; Table 3; HIV-1ERS104pre (wild type), PHA-PBMs, p24 Gag; read-out: IC50 ± SDs. In kind it is cell-based.
The next experiment concerns HIV-1MDR/B. Nature of the experiment: microbe, parasite or virus in culture. The format is cell-based.
The next experiment deals with HIV-1MDR/C. Nature of the experiment: microbe, parasite or virus in culture. The format is cell-based.
Another experiment has as its system HIV-1MDR/G. Description: microbe, parasite or virus in culture. In kind it is cell-based.
Another experiment deals with HIV-1MDR/TM. Description: microbe, parasite or virus in culture. The format is cell-based.
Setting [2] is: read-out: Ki / enzyme inhibitory potency.
Where [3] appears, read: Human immunodeficiency virus 1, MT2, read-out: ID50, Table 2, antiviral activity.
[4] abbreviates: Human immunodeficiency virus 1, MT2, read-out: antiviral IC50.
[5] abbreviates: Human immunodeficiency virus 1, MT2, Table 1, MT-2 cells, 100 TCID50s of HIV-1LAI, MTT assay, means of at least two experiments.
The mark [6] stands for this setting: Human immunodeficiency virus 1, read-out: IC50 ± SDs.

With `COc1ccc(S(=O)(=O)N(CC(C)C)C[C@@H](O)[C@H](Cc2ccccc2)NC(=O)O[C@@H]2C[C@@H]3C(=O)CO[C@@H]3C2)cc1` [Inhibitor 19a, (3aS,5R,6aR)-3-oxohexahydro-2H-cyclopenta[b]furan-5-yl (2S,3R)-3-hydroxy-4-(N-isobutyl-4-methoxyphenylsulfonamido)-1-phenylbutan-2-ylcarbamate], at HIV-1 protease (Table 1, read-out: Ki), the Ki is 0.95 nM. For the same compound, the IC50 with HIV-1LAI (Human immunodeficiency virus 1, MT2, Table 1, MT-2 cells, 100 TCID50s of HIV-1LAI, MTT assay, means of at least two experiments, read-out: IC50) amounted to 14 nM.
With `COc1ccc(S(=O)(=O)N(CC(C)C)C[C@@H](O)[C@H](Cc2ccccc2)NC(=O)O[C@@H]2C[C@@H]3[C@H](NC(C)=O)CO[C@@H]3C2)cc1` [Inhibitor 19g, (3S,3aR,5R,6aR)-3-acetamidohexahydro-2H-cyclopenta[b]furan-5-yl (2S,3R)-3-hydroxy-4-(N-isobutyl-4-methoxyphenylsulfonamido)-1-phenylbutan-2-yl-carbamate], the Ki at HIV-1 protease (setting [2]) amounted to 0.007 nM. In addition, the IC50 in the experiment on HIV-1LAI (setting [3]) stood at 21.5 nM; in the experiment with HIV-1LAI (setting [4]), 25 nM.
Regarding `COc1ccc(S(=O)(=O)N(CC(C)C)C[C@@H](O)[C@H](Cc2ccccc2)NC(=O)O[C@@H]2C[C@@H]3[C@@H](NC(C)=O)CO[C@@H]3C2)cc1` [Inhibitor 19h, (3′R,3′aR,5′R,6′aR)-3-acetamidohexahydro-2H-cyclopenta[b]furan-5-yl (2S,3R)-3-hydroxy-4-(N-isobutyl-4-methoxyphenylsulfonamido)-1-phenylbutan-2-yl-carbamate], the Ki on HIV-1 protease (Table 2, read-out: Ki) was found to be 0.0075 nM; on HIV-1 protease (setting [2]), 0.007 nM. Further, the IC50 with HIV-1LAI (setting [3]) and in the experiment with HIV-1LAI (setting [4]) was 31 nM throughout.
Turning to `COc1ccc(S(=O)(=O)N(CC(C)C)C[C@@H](O)[C@H](Cc2ccccc2)NC(=O)O[C@@H]2C[C@@H]3[C@H](N(C)C)CO[C@@H]3C2)cc1`, the Ki at HIV-1 protease (Table 2, read-out: Ki) turned out to be 12.7 nM.
In the experiment with HIV-1LAI (setting [5]), `CC(C)(C)NC(=O)[C@@H]1C[C@@H]2CCCC[C@@H]2CN1C[C@@H](O)[C@H](Cc1ccccc1)NC(=O)[C@H](CC(N)=O)NC(=O)c1ccc2ccccc2n1` [SQV, saquinavir, reference compound] registered an IC50 of 15 nM.
Turning to `COc1ccc(S(=O)(=O)N(CC(C)C)C[C@@H](O)[C@H](Cc2ccccc2)NC(=O)O[C@@H]2C[C@H]3[C@@H](C2)OC[C@H]3OC(=O)N(C)C)cc1`, the Ki at HIV-1 protease (Table 2, read-out: Ki) was 0.02 nM. In addition, the IC50 in the experiment on HIV-1LAI (setting [3]) came to 4.7 nM.
With `CC(C)CN(C[C@@H](O)[C@H](Cc1ccccc1)NC(=O)O[C@@H]1C[C@@H]2[C@H](O)CO[C@@H]2C1)S(=O)(=O)c1ccc(CO)cc1` [Inhibitor 23, (3S,3aR,5R,6aR)-3-Hydroxyhexahydro-2H-cyclopenta[b]furan-5-yl {(2S,3R)-3-Hydroxy-4-[4-(hydroxymethyl)-N-iso-butylphenylsulfonamido]-1-phenylbutan-2-yl}carbamate], at HIV-1 protease (Table 1, read-out: Ki), the Ki amounted to 0.06 nM. This compound also displayed an IC50 in the experiment with HIV-1LAI (setting [5]) of 19 nM. Further, in the experiment on HIV-1LAI, the “loss of antiviral activity (higher IC50) compared to 22” value (“loss … compared to 22” below) stood at 4 fold.
As for `CC(C)CN(C[C@@H](O)[C@H](Cc1ccccc1)NC(=O)O[C@@H]1C[C@@H]2[C@H](O)CO[C@@H]2C1)S(=O)(=O)c1ccc(N)cc1` [drawing 10], on HIV-1 protease (Table 1, read-out: Ki), the Ki worked out at 0.079 nM. The compound also registered an IC50 with HIV-1LAI (setting [5]) of 25 nM.
The like results for `CC(C)CN(C[C@@H](O)[C@H](Cc1ccccc1)NC(=O)O[C@@H]1C[C@@H]2[C@@H](O)CO[C@@H]2C1)S(=O)(=O)c1ccc(N)cc1` [Inhibitor 26, (3R,3aR,5R,6aR)-3-Hydroxyhexahydro-2H-cyclopenta[b]furan-5-yl [(2S,3R)-4-(4-Amino-N-iso-butylphenylsulfonamido)-3-hydroxy-1-phenylbutan-2-yl]-carbamate] were, in that order, 0.006 nM and 36 nM.
Take “((3R,3aS,5R,6aR)-3-Methoxyhexahydro-2H-cyclopenta[b]furan-5-yl [(2S,3R)-3-Hydroxy-4-(N-iso-butyl-4-methoxyphenylsulfonamido)-1-phenylbutan-2-yl]-carbamate [Inhibitor 19d]”: the Ki at HIV-1 protease (setting [2]) worked out at 0.006 nM. Besides, the IC50 in the experiment with HIV-1LAI (Table 1, MT-2 cells, 100 TCID50s of HIV-1LAI, MTT assay, means of at least two experiments, read-out: IC50) is 3.4 nM.
On to `COc1ccc(S(=O)(=O)N(CC(C)C)C[C@@H](O)[C@H](Cc2ccccc2)NC(=O)O[C@@H]2C[C@@H]3[C@H](C)CO[C@@H]3C2)cc1` [Inhibitor 19e, (3S,3aR,5R,6aR)-3-Methylhexahydro-2H-cyclopenta[b]furan-5-yl [(2S,3R)-3-Hydroxy-4-(N-iso-butyl-4-methoxyphenylsulfonamido)-1-phenylbutan-2-yl]carbamate], for which the Ki at HIV-1 protease (Table 1, read-out: Ki) was 0.02 nM and 0.16 nM. In the experiment with HIV-1LAI (setting [5]), this compound came in with an IC50 of 25 nM. In addition, the “loss … compared to 22” value in the experiment on HIV-1LAI amounted to 5 fold.
For `COC(=O)N[C@@H]1CO[C@@H]2C[C@H](OC(=O)N[C@@H](Cc3ccccc3)[C@H](O)CN(CC(C)C)S(=O)(=O)c3ccc(OC)cc3)C[C@H]12` [drawing 23], the IC50 with HIV-1LAI (setting [3]) amounted to 1.6 nM.
For `CC(C)CN(C[C@@H](O)[C@H](Cc1ccccc1)NC(=O)O[C@@H]1C[C@@H]2[C@H](O)CO[C@@H]2C1)S(=O)(=O)c1ccc(N)cc1` [Inhibitor 123, (3S,3aR,5R,6aR)-3-Hydroxyhexahydro-2H-cyclopenta[b]furan-5-yl [(2S,3R)-4-(4-Amino-N-isobutylphenylsulfonamido)-3-hydroxy-1-phenylbutan-2-yl]carbamate], the “loss … compared to 22” value in the experiment with HIV-1LAI stood at 3 fold.
For the compound `COC(=O)N[C@H]1CO[C@@H]2C[C@H](OC(=O)N[C@@H](Cc3ccccc3)[C@H](O)CN(CC(C)C)S(=O)(=O)c3ccc(OC)cc3)C[C@H]12` [drawing 24], the Ki at HIV-1 protease (Table 2, read-out: Ki) was determined as 0.004 nM. Moreover, in the experiment on HIV-1LAI (setting [3]), the IC50 worked out at 4.6 nM.
For `CON[C@@H]1CO[C@@H]2C[C@H](OC(=O)N[C@@H](Cc3ccccc3)[C@H](O)CN(CC(C)C)S(=O)(=O)c3ccc(OC)cc3)C[C@H]12`, in that order: 0.088 nM and 81.5 nM.
The like results for `COc1ccc(S(=O)(=O)N(CC(C)C)C[C@@H](O)[C@H](Cc2ccccc2)NC(=O)O[C@@H]2C[C@@H]3[C@@H](NS(C)(=O)=O)CO[C@@H]3C2)cc1` [Inhibitor 19j, (3R,3aR,5R,6aR)-3-(methylsulfonamido)hexahydro-2H-cyclopenta[b]furan-5-yl ((2S,3R)-3-hydroxy-4-(N-isobutyl-4-methoxyphenylsulfonamido)-1-phenylbutan-2-yl) carbamate] were, in that order, 0.18 nM and 50 nM.
For `COc1ccc(S(=O)(=O)N(CC(C)C)C[C@@H](O)[C@H](Cc2ccccc2)NC(=O)O[C@@H]2C[C@@H]3[C@@H](C)CO[C@@H]3C2)cc1` [Inhibitor 19f, (3R,3aR,5R,6aR)-3-Methylhexahydro-2H-cyclopenta[b]furan-5-yl [(2S,3R)-3-Hydroxy-4-(N-isobutyl-4-methoxyphenylsulfonamido)-1-phenylbutan-2-yl]carbamate], the Ki on HIV-1 protease (Table 1, read-out: Ki) was found to be 0.017 nM.
With `CC(C)CN(C[C@@H](O)[C@H](Cc1ccccc1)NC(=O)O[C@H]1CCOC1)S(=O)(=O)c1ccc(N)cc1` [APV, amprenavir, reference compound], the IC50 in experiment [1] came out at 30 ± 6 nM; in the experiment on HIV-1MDR/B (setting [6]), 930 ± 280 nM; with HIV-1MDR/C (setting [6]), 260 ± 30 nM; in the experiment on HIV-1MDR/G (setting [6]), 380 ± 30 nM; in the experiment on HIV-1MDR/TM (setting [6]), 190 ± 60 nM. Besides, the “fold change of IC50” value in the experiment on HIV-1MDR/B (Table 3, HIV-1MDR/B compared to wild-type HIV-1ERS104pre) was determined as 31; in the experiment on HIV-1MDR/C (Table 3, HIV-1MDR/C compared to wild-type HIV-1ERS104pre), 9; with HIV-1MDR/G (Table 3, HIV-1MDR/G compared to wild-type HIV-1ERS104pre), 12; in the experiment on HIV-1MDR/TM (Table 3, HIV-1MDR/TM compared to wild-type HIV-1ERS104pre) it was 6.
Take `COc1ccc(S(=O)(=O)N(CC(C)C)C[C@@H](O)[C@H](Cc2ccccc2)NC(=O)O[C@@H]2C[C@@H]3[C@H](NS(C)(=O)=O)CO[C@@H]3C2)cc1` [Inhibitor 19i, (3S,3aR,5R,6aR)-3-(methylsulfonamido)hexahydro-2H-cyclopenta[b]furan-5-yl ((2S,3R)-3-hydroxy-4-(N-isobutyl-4-methoxyphenylsulfonamido)-1-phenylbutan-2-yl)-carbamate]: at HIV-1 protease (Table 2, read-out: Ki), the Ki was 0.017 nM and 0.032 nM. Moreover, the IC50 in the experiment on HIV-1LAI (setting [3]) worked out at 28 nM.
With `COc1ccc(S(=O)(=O)N(CC(C)C)C[C@@H](O)[C@H](Cc2ccccc2)NC(=O)O[C@@H]2C[C@@H]3[C@H](OC)CO[C@@H]3C2)cc1` [Inhibitor 19b, (3S,3aS,5R,6aR)-3-Methoxyhexahydro-2H-cyclopenta[b]furan-5-yl [(2S,3R)-3-Hydroxy-4-(N-iso-butyl-4-methoxyphenylsulfonamido)-1-phenylbutan-2-yl]carbamate], the Ki at HIV-1 protease (Table 1, read-out: Ki) worked out at 0.39 nM; at HIV-1 protease (read-out: Ki) it was 0.95 nM. The IC50 in the experiment with HIV-1LAI (setting [5]) and with HIV-1LAI (setting [4]) was 37 nM throughout. Besides, the “loss … compared to 22” value in the experiment with HIV-1LAI is ~5 fold and ~7 fold.
